Read-outs that look alike come from different tables or passages of the source. Where a SMILES comes first, the peptide text is derived from it.
Columns and labels:
β-catenin = biological target: T1, β-catenin (Homo sapiens, UniProt P35222); assay: KD50 measurement using competitive fluorescence polarization (FP) with labelled TCF4; format: binding; details: fluorescence polarization, β-catenin; for Kd: read-out: β-Cat FP KD
T1 sequence (P35222 1-781): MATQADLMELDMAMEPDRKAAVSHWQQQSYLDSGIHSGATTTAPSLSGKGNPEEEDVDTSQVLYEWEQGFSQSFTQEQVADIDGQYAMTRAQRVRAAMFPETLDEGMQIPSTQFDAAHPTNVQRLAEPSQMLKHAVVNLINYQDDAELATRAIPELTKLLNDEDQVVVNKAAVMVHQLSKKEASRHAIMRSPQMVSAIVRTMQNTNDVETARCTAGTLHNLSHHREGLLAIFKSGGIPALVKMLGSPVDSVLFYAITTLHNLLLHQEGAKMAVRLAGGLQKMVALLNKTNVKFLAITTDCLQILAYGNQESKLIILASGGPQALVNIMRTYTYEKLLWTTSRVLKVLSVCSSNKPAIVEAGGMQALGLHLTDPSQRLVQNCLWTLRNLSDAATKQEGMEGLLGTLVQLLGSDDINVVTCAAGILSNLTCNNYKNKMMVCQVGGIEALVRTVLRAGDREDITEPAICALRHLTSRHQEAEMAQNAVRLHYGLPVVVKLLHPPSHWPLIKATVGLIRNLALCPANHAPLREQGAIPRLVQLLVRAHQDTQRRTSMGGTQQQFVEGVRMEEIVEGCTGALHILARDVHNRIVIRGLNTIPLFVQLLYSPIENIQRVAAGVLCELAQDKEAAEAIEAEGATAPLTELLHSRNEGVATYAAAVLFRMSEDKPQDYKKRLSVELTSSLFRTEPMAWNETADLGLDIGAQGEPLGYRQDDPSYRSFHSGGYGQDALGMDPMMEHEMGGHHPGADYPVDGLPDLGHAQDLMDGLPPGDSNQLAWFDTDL
How it was run: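 Each compound competes against labelled TCF4 (5 nM) for 100 nM β-catenin at room temperature, tested over 10 nM to 30 uM. Signal: polarization at 470/520 nm excitation/emission. Three repeat experiments were performed.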

[1] = biological target: Wnt-responsive promoter (TCF/LEF); assay: Wnt-dependent luciferase reporter assay; format: cell-based, murine
How it was run: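 Murine 3T3 fibroblasts carrying a TCF/LEF-driven luciferase reporter, stimulated with Wnt3a in the presence of increasing peptide concentrations or vehicle. Luminescence inhibition gave EC50 values in uM.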

in vitro = details: % Viability non-Wnt responsive cells
[2] = % Viability non-Wnt responsive cells

Structure (SMILES)	Kd (β-catenin)	EC50 [1]	viability (in vitro)	β-Cat FP Hill slope (β-catenin)	viability [2]
CC[C@H](C)[C@H](NC(=O)[C@H](CC(C)C)NC(=O)[C@H](Cc1ccccc1)NC(=O)[C@H](Cc1c[nH]c2ccccc12)NC(=O)[C@H](CCSC)NC(=O)[C@H](CCCNC(=N)N)NC(=O)[C@H](CO)NC(=O)[C@@H](N)CCSC)C(=O)N[C@@H](CO)C(=O)N[C@@H](Cc1ccccc1)C(=O)N[C@@H](Cc1c[nH]c2ccccc12)C(=O)N[C@@H](CCSC)C(=O)NCC(=O)O [compound 14] (H-MSRMWFLISFWMG-OH)	> 30 µM	< 7.5 µM	98%		
CC[C@H](C)[C@H](NC(=O)[C@H](CC(C)C)NC(=O)[C@H](Cc1ccccc1)NC(=O)[C@H](Cc1c[nH]c2ccccc12)NC(=O)[C@H](CCSC)NC(=O)[C@H](CCCNC(=N)N)NC(=O)[C@@H](NC(=O)[C@@H](N)CCSC)[C@@H](C)CC)C(=O)N[C@@H](CO)C(=O)N[C@@H](Cc1ccccc1)C(=O)N[C@@H](Cc1c[nH]c2ccccc12)C(=O)NCC(=O)O [compound 15] (H-MIRMWFLISFWG-OH)		< 7.5 µM	103%		
CC[C@H](C)[C@@H]1NC(=O)[C@H](CC(C)C)NC(=O)[C@H](Cc2ccccc2)NC(=O)[C@H](Cc2c[nH]c3ccccc23)NC(=O)[C@H](CCSC)NC(=O)[C@H](CCCNC(=N)N)NC(=O)[C@H](CO)NC(=O)[C@H](CCSC)NC(=O)[C@@H](N)CCCCNC(=O)CNC(=O)[C@H](Cc2c[nH]c3ccccc23)NC(=O)[C@H](CC(C)C)NC(=O)[C@H](CO)NC1=O [compound 28] (HELM PEPTIDE1{K.M.S.R.M.W.F.L.I.S.L.W.G}$PEPTIDE1,PEPTIDE1,1:R3-13:R2$$$V2.0; bridges inferred)		22.5 to 30 µM	91%		
CC[C@@H](C)[C@H]1NC(=O)[C@@H](CC(C)C)NC(=O)[C@@H](Cc2ccccc2)NC(=O)[C@H](Cc2c[nH]c3ccccc23)NC(=O)[C@@H](CCSC)NC(=O)CCCCCCCCCCCNC(=O)C[C@@H](C(=O)O)NC(=O)[C@H](Cc2c[nH]c3ccccc23)NC(=O)[C@@H](Cc2ccccc2)NC(=O)[C@H](CS)NC1=O [compound 190] (HELM PEPTIDE1{[O=C(CCCCCCCCCCCN[*:1])[*:2]].[dM].W.[dF].[dL].[dI].C.[dF].W.D}$PEPTIDE1,PEPTIDE1,1:R1-10:R3$$$V2.0)	0.4 to 1 µM	< 7.5 µM	99.6%	1.92	
CC[C@H](C)[C@H](NC(=O)[C@H](CC(C)C)NC(=O)[C@H](Cc1ccccc1)NC(=O)[C@H](Cc1c[nH]c2ccccc12)NC(=O)[C@@H](N)CCSC)C(=O)N[C@@H](CS)C(=O)N[C@@H](Cc1ccccn1)C(=O)N[C@@H](Cc1c[nH]c2ccccc12)C(=O)NCC(=O)O [compound 148] (HELM PEPTIDE1{M.W.F.L.I.C.[O=C([C@H](Cc1ccccn1)N[*:1])[*:2]].W.G}$$$$V2.0)	0.4 to 1 µM	7.5 to 15 µM	95.5%	0.7	
CC[C@H](C)[C@@H]1NC(=O)[C@H](CO)NC(=O)[C@H](CCC(N)=O)NC(=O)[C@H](C)N(C)C(=O)[C@@H](N)CCCCNC(=O)CNC(=O)[C@H](Cc2c[nH]c3ccccc23)NC(=O)[C@H](C(C)C)NC(=O)[C@H](CCCNC(=N)N)NC(=O)[C@H](CCC(N)=O)NC(=O)[C@H](C(C)C)NC(=O)[C@H](Cc2c[nH]cn2)NC(=O)[C@H](CCC(=O)O)NC(=O)[C@H](CC(=O)O)NC(=O)[C@H](CC(C)C)NC1=O [compound 19] (HELM PEPTIDE1{K.[meA].Q.S.I.L.D.E.H.V.Q.R.V.W.G}$PEPTIDE1,PEPTIDE1,1:R3-15:R2$$$V2.0; bridges inferred)	> 30 µM	> 30 µM	104%		
CC[C@H](C)[C@@H]1NC(=O)[C@H](CO)NC(=O)[C@H](CCC(=O)O)NC(=O)[C@H](C)N(C)C(=O)[C@@H](N)CCCCNC(=O)CNC(=O)[C@H](Cc2c[nH]c3ccccc23)NC(=O)[C@H](C(C)C)NC(=O)[C@H](CCCNC(=N)N)NC(=O)[C@H](CCC(N)=O)NC(=O)[C@H](C(C)C)NC(=O)[C@H](Cc2c[nH]cn2)NC(=O)[C@H](CCC(=O)O)NC(=O)[C@H](CC(=O)O)NC(=O)[C@H](CC(C)C)NC1=O [compound 18] (HELM PEPTIDE1{K.[meA].E.S.I.L.D.E.H.V.Q.R.V.W.G}$PEPTIDE1,PEPTIDE1,1:R3-15:R2$$$V2.0; bridges inferred)	> 30 µM	> 30 µM	90.2%		
CC[C@H](C)[C@H](NC(=O)[C@H](CO)NC(=O)[C@H](CCC(=O)O)NC(=O)[C@H](Cc1c[nH]c2ccccc12)NC(=O)[C@@H](N)CCSC)C(=O)N[C@@H](CC(C)C)C(=O)N[C@@H](CC(=O)O)C(=O)N[C@@H](CCC(=O)O)C(=O)N[C@@H](Cc1c[nH]cn1)C(=O)N[C@@H](CCSC)C(=O)N[C@@H](CCC(N)=O)C(=O)N[C@@H](CCCNC(=N)N)C(=O)N[C@H](C(=O)N[C@@H](Cc1c[nH]c2ccccc12)C(=O)N[C@@H](CCCNC(=N)N)C(=O)NCC(=O)O)C(C)C [compound 23] (H-MWESILDEHMQRVWRG-OH)	< 0.4 µM	> 30 µM	98.9%	0.71	
CC[C@H](C)[C@H]1NC(=O)[C@H](CC(C)C)NC(=O)[C@@H](Cc2ccccc2)NC(=O)[C@H](Cc2c[nH]c3ccccc23)NC(=O)[C@@H](CCSC)NC(=O)CCCCCCCCCCCNC(=O)C[C@@H](C(=O)O)NC(=O)[C@H](Cc2c[nH]c3ccccc23)NC(=O)[C@@H](C)NC(=O)[C@@H](CS)NC1=O [compound 193] (HELM PEPTIDE1{[O=C(CCCCCCCCCCCN[*:1])[*:2]].[dM].W.[dF].L.[CC[C@H](C)[C@@H](N[*:1])C(=O)[*:2]].[dC].[dA].W.D}$PEPTIDE1,PEPTIDE1,1:R1-10:R3$$$V2.0)	0.4 to 1 µM	< 7.5 µM	96.6%	2.34	
CC[C@H](C)[C@@H]1NC(=O)[C@H](CC(C)C)NC(=O)[C@H](Cc2ccccc2)NC(=O)[C@H](Cc2c[nH]c3ccccc23)NC(=O)[C@H](CCSC)NC(=O)[C@@H](N)CCCCNC(=O)CNC(=O)[C@H](Cc2c[nH]c3ccccc23)NC(=O)[C@H](Cc2ccccc2)NC(=O)[C@H](CO)NC1=O [compound 26] (HELM PEPTIDE1{K.M.W.F.L.I.S.F.W.G}$PEPTIDE1,PEPTIDE1,1:R3-10:R2$$$V2.0; bridges inferred)		7.5 to 15 µM	88%		
CC[C@H](C)[C@H](NC(=O)[C@H](CO)NC(=O)[C@H](CCC(=O)O)NC(=O)[C@H](Cc1c[nH]c2ccccc12)NC(=O)[C@@H](N)CCSC)C(=O)N[C@@H](CC(C)C)C(=O)N[C@@H](CC(=O)O)C(=O)N[C@@H](CCC(=O)O)C(=O)N[C@@H](Cc1c[nH]cn1)C(=O)N[C@H](C(=O)N[C@@H](CCC(N)=O)C(=O)N[C@@H](CCCNC(=N)N)C(=O)N[C@H](C(=O)N[C@@H](Cc1c[nH]c2ccccc12)C(=O)NCC(=O)O)C(C)C)C(C)C [compound 22] (H-MWESILDEHVQRVWG-OH)		> 30 µM	99.6%		
CC[C@H](C)[C@@H]1NC(=O)[C@H](CC(C)C)NC(=O)[C@H](CC(C)C)NC(=O)[C@H](Cc2c[nH]c3ccccc23)NC(=O)[C@H](CCSC)NC(=O)[C@H](CCCNC(=N)N)NC(=O)[C@H](CO)NC(=O)[C@H](CCSC)NC(=O)[C@@H](N)CCCCNC(=O)CNC(=O)[C@H](Cc2c[nH]c3ccccc23)NC(=O)[C@H](Cc2ccccc2)NC(=O)[C@H](CO)NC1=O [compound 25] (HELM PEPTIDE1{K.M.S.R.M.W.L.L.I.S.F.W.G}$PEPTIDE1,PEPTIDE1,1:R3-13:R2$$$V2.0; bridges inferred)		7.5 to 15 µM	97%		
CC[C@H](C)[C@@H]1NC(=O)[C@H](CC(C)C)NC(=O)[C@H](Cc2ccc(O)cc2)NC(=O)[C@H](Cc2c[nH]c3ccccc23)NC(=O)[C@H](CCSC)NC(=O)[C@H](CCCNC(=N)N)NC(=O)[C@H](CO)NC(=O)[C@H](CCSC)NC(=O)[C@@H](N)CCCCNC(=O)CNC(=O)[C@H](Cc2c[nH]c3ccccc23)NC(=O)[C@H](Cc2ccccc2)NC(=O)[C@H](CO)NC1=O [compound 27] (HELM PEPTIDE1{K.M.S.R.M.W.Y.L.I.S.F.W.G}$PEPTIDE1,PEPTIDE1,1:R3-13:R2$$$V2.0; bridges inferred)		> 30 µM	96%		
CC[C@H](C)[C@H](NC(=O)[C@H](CC(C)C)NC(=O)[C@H](Cc1ccccc1)NC(=O)[C@H](Cc1c[nH]c2ccccc12)NC(=O)[C@H](Cc1ccccc1)NC(=O)[C@H](CCCNC(=N)N)NC(=O)[C@H](CO)NC(=O)[C@@H](N)CCSC)C(=O)N[C@@H](CO)C(=O)N[C@@H](Cc1ccccc1)C(=O)N[C@@H](Cc1c[nH]c2ccccc12)C(N)=O [compound 77] (H-MSRFWFLISFW-NH2)	> 30 µM	> 30 µM			107%
